Measurements published in PMC10698032, “A monoacylglycerol lipase inhibitor showing therapeutic efficacy in mice without central side effects or dependence” (Nature Communications, 2023).

How the values were obtained:
[1] = molecular target: Lck kinase (h) (Homo sapiens, UniProt P06239); assay: biochemical; parameters: CEREP off-target panel, enzyme inhibition; conditions: read-out: % Inhibition, Mean (enzymes)
[2] = molecular target: PDE3A (h) (Homo sapiens, UniProt Q14432); assay: biochemical; parameters: CEREP off-target panel, enzyme inhibition; conditions: read-out: % Inhibition, Mean (enzymes)
[3] = molecular target: T1, COX1(h) (Homo sapiens, UniProt P23219); assay: biochemical; parameters: CEREP off-target panel, enzyme inhibition; conditions: read-out: % Inhibition, Mean (enzymes)
T1 construct: gene PTGS1

[4] = molecular target: T2, acetylcholinesterase (h) (Homo sapiens, UniProt P22303); assay: biochemical; parameters: CEREP off-target panel, enzyme inhibition; conditions: read-out: % Inhibition, Mean (enzymes)
T2 construct: gene ACHE

[5] = molecular target: T3, COX2(h) (Homo sapiens, UniProt P35354); assay: biochemical; parameters: CEREP off-target panel, enzyme inhibition; conditions: read-out: % Inhibition, Mean (enzymes)
T3 construct: gene PTGS2

[6] = molecular target: T4, PDE4D2 (h) (Homo sapiens, UniProt Q08499); assay: biochemical; parameters: CEREP off-target panel, enzyme inhibition; conditions: read-out: % Inhibition, Mean (enzymes)
T4 construct: gene PDE4D; isoform PDE4D2

[7] = molecular target: T5, hormone-sensitive lipase (HSL) (Mus musculus, UniProt P54310); assay: MS chemical proteomics on mouse tissues; gel-based competitive ABPP on recombinant mouse HSL; type: cell-based
T5 construct: gene Lipe; full-length, C-terminal FLAG-tag, expressed in HEK293T; endogenous in mouse tissue proteomes

[8] = molecular target: T6, MAGL (monoacylglycerol lipase) (Homo sapiens, UniProt Q99685, K36A/L169S/L176S); assay: X-ray co-crystal structure (crystal soaking), […] Å; type: binding
T6 construct: gene MGLL; tag-free hMAGL (K36A, L169S, L176S), His6-TEV tag cleaved

[9] = molecular target: T7, 5-HT1B (h) (antagonist radioligand) (Homo sapiens, UniProt P28222); assay: biochemical; parameters: CEREP off-target panel, radioligand binding, inhibition of control specific binding; conditions: read-out: % Inhibition of Control Specific Binding, Mean
T7 construct: gene HTR1B; antagonist radioligand

[10] = molecular target: T8, ETA(h) (agonist radioligand) (Homo sapiens, UniProt P25101); assay: biochemical; parameters: CEREP off-target panel, radioligand binding, inhibition of control specific binding; conditions: read-out: % Inhibition of Control Specific Binding, Mean
T8 construct: gene EDNRA; agonist radioligand

[11] = molecular target: T9, 5-HT2B(h) (agonist radioligand) (Homo sapiens, UniProt P41595); assay: biochemical; parameters: CEREP off-target panel, radioligand binding, inhibition of control specific binding; conditions: read-out: % Inhibition of Control Specific Binding, Mean
T9 construct: gene HTR2B; agonist radioligand

[12] = molecular target: T10, μ (MOP) (h) (agonist radioligand) (Homo sapiens, UniProt P35372); assay: biochemical; parameters: CEREP off-target panel, radioligand binding, inhibition of control specific binding; conditions: read-out: % Inhibition of Control Specific Binding, Mean
T10 construct: gene OPRM1; agonist radioligand

[13] = molecular target: T11, CB2(h) (agonist radioligand) (Homo sapiens, UniProt P34972); assay: biochemical; parameters: CEREP off-target panel, radioligand binding, inhibition of control specific binding; conditions: read-out: % Inhibition of Control Specific Binding, Mean
T11 construct: gene CNR2; agonist radioligand

[14] = molecular target: T12, M1(h) (antagonist radioligand) (Homo sapiens, UniProt P11229); assay: biochemical; parameters: CEREP off-target panel, radioligand binding, inhibition of control specific binding; conditions: read-out: % Inhibition of Control Specific Binding, Mean
T12 construct: gene CHRM1; antagonist radioligand

[15] = molecular target: T13, V1a(h) (agonist radioligand) (Homo sapiens, UniProt P37288); assay: biochemical; parameters: CEREP off-target panel, radioligand binding, inhibition of control specific binding; conditions: read-out: % Inhibition of Control Specific Binding, Mean
T13 construct: gene AVPR1A; agonist radioligand

[16] = molecular target: T14, β2(h) (antagonist radioligand) (Homo sapiens, UniProt P07550); assay: biochemical; parameters: CEREP off-target panel, radioligand binding, inhibition of control specific binding; conditions: read-out: % Inhibition of Control Specific Binding, Mean
T14 construct: gene ADRB2; antagonist radioligand

[17] = molecular target: T15, 5-HT1A(h) (agonist radioligand) (Homo sapiens, UniProt P08908); assay: biochemical; parameters: CEREP off-target panel, radioligand binding, inhibition of control specific binding; conditions: read-out: % Inhibition of Control Specific Binding, Mean
T15 construct: gene HTR1A; agonist radioligand

[18] = molecular target: T16, H1(h) (antagonist radioligand) (Homo sapiens, UniProt P35367); assay: biochemical; parameters: CEREP off-target panel, radioligand binding, inhibition of control specific binding; conditions: read-out: % Inhibition of Control Specific Binding, Mean
T16 construct: gene HRH1; antagonist radioligand

[19] = molecular target: T17, A2A(h) (agonist radioligand)` (Homo sapiens, UniProt P29274); assay: biochemical; parameters: CEREP off-target panel, radioligand binding, inhibition of control specific binding; conditions: read-out: % Inhibition of Control Specific Binding, Mean
T17 construct: gene ADORA2A; agonist radioligand

[20] = molecular target: T18, M3(h) (antagonist radioligand) (Homo sapiens, UniProt P20309); assay: biochemical; parameters: CEREP off-target panel, radioligand binding, inhibition of control specific binding; conditions: read-out: % Inhibition of Control Specific Binding, Mean
T18 construct: gene CHRM3; antagonist radioligand
T18 sequence (P20309 whole entry): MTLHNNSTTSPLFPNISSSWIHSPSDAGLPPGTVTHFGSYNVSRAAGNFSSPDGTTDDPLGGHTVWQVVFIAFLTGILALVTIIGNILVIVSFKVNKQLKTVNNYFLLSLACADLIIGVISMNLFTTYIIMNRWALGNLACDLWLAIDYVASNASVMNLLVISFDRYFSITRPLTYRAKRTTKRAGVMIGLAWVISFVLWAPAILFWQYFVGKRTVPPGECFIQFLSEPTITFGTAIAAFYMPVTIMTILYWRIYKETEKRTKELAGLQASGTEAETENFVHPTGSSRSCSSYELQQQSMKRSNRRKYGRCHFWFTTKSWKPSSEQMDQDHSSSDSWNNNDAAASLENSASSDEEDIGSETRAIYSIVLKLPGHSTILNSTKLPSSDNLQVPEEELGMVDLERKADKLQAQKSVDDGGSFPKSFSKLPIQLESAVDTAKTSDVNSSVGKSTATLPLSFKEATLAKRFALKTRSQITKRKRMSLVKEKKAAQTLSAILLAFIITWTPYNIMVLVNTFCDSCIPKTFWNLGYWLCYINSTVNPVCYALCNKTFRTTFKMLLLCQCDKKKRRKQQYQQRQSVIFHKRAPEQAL

T11 sequence (P34972 whole entry): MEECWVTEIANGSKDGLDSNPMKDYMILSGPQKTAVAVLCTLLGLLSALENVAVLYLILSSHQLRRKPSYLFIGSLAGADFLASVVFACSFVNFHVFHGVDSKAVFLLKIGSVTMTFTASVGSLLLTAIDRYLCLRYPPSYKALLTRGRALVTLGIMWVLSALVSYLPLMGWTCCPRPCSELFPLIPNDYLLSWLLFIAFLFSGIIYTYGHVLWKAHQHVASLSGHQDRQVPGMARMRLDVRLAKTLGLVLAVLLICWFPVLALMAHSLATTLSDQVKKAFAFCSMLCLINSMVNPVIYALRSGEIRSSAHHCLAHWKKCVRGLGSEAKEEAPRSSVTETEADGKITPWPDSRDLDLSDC
T12 sequence (P11229 whole entry): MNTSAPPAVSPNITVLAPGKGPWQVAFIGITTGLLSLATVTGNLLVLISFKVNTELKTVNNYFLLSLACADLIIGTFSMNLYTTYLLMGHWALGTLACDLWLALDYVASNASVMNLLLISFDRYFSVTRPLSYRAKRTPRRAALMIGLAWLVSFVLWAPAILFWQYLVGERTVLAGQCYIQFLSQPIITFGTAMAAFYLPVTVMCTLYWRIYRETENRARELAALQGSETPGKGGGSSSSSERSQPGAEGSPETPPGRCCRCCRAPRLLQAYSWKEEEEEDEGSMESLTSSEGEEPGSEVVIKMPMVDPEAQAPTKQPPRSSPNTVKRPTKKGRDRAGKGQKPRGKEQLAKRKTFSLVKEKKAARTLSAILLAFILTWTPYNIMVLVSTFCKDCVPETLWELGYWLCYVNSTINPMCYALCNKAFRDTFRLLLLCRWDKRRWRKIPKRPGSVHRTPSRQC
T15 sequence (P08908 whole entry): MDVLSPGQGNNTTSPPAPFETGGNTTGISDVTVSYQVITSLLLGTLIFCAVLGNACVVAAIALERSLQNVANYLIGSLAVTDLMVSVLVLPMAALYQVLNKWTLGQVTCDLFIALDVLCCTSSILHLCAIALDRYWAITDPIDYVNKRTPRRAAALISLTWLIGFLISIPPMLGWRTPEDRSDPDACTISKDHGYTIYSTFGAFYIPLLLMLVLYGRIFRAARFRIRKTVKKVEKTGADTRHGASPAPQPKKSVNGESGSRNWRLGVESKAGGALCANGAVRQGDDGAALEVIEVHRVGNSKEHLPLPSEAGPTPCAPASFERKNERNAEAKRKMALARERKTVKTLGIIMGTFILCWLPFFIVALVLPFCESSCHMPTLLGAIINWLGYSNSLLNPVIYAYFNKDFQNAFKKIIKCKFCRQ
T8 sequence (P25101 whole entry): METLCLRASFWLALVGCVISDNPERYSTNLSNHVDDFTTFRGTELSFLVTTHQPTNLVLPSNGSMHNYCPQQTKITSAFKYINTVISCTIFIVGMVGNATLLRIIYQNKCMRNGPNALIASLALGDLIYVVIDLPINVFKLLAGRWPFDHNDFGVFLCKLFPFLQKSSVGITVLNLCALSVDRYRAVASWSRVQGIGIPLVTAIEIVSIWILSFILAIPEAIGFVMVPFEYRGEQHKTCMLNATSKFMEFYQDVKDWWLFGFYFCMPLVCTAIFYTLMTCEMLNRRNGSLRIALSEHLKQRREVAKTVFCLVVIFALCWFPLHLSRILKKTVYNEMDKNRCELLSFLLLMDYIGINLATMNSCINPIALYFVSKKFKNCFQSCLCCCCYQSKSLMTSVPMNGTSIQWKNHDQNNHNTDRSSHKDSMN
T1 sequence (P23219 whole entry): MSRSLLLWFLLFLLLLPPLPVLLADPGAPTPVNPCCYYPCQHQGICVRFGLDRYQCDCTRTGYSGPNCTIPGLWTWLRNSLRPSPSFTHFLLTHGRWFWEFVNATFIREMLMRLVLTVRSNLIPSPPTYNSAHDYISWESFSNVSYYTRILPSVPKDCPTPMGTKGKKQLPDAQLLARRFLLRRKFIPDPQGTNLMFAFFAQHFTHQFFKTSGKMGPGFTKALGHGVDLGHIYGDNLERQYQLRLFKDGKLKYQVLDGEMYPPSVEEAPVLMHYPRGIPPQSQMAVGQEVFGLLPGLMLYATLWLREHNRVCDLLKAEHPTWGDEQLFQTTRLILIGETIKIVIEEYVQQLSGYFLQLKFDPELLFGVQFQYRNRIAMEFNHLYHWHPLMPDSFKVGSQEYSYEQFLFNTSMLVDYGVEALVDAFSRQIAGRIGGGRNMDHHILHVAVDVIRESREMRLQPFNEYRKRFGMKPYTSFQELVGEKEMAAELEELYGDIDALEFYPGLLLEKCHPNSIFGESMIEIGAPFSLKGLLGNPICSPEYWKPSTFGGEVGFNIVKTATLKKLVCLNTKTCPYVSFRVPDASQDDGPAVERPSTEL
T13 sequence (P37288 whole entry): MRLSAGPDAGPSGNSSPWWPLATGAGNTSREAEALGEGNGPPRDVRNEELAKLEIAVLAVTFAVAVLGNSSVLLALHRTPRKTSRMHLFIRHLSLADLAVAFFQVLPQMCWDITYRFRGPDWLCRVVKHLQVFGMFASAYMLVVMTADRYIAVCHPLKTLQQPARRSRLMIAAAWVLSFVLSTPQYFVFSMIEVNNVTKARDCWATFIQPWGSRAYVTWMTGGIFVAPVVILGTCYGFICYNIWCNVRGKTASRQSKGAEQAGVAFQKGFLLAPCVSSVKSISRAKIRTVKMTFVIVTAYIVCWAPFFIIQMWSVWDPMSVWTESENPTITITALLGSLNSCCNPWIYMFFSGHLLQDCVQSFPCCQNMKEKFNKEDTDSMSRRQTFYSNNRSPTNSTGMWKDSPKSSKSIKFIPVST
T10 sequence (P35372 whole entry): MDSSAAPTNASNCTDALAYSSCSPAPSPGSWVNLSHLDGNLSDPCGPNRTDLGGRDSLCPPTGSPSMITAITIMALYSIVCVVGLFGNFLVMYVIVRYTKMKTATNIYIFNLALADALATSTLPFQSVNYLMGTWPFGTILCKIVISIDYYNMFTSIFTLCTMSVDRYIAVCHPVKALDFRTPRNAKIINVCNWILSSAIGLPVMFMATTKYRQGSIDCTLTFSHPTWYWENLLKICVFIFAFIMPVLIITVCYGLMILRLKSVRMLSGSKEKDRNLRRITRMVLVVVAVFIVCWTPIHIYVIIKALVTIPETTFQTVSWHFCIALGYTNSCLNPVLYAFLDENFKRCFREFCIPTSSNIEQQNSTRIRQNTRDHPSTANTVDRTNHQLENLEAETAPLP
T3 sequence (P35354 whole entry): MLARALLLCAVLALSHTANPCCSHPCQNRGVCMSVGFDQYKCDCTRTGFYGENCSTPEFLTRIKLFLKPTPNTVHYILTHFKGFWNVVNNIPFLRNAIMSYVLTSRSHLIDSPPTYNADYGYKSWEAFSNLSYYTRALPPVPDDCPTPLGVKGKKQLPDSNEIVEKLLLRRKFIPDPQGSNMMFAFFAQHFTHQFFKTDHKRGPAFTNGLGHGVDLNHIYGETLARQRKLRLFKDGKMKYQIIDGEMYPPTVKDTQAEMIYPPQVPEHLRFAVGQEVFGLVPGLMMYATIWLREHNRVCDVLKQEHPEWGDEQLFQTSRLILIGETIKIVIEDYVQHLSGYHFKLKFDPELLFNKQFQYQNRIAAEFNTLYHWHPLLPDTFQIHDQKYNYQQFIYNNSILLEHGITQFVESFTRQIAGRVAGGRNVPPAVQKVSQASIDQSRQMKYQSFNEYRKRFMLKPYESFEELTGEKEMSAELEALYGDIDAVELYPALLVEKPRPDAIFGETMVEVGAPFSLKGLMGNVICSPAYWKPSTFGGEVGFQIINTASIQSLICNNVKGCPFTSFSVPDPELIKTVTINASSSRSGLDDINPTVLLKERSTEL
T16 sequence (P35367 whole entry): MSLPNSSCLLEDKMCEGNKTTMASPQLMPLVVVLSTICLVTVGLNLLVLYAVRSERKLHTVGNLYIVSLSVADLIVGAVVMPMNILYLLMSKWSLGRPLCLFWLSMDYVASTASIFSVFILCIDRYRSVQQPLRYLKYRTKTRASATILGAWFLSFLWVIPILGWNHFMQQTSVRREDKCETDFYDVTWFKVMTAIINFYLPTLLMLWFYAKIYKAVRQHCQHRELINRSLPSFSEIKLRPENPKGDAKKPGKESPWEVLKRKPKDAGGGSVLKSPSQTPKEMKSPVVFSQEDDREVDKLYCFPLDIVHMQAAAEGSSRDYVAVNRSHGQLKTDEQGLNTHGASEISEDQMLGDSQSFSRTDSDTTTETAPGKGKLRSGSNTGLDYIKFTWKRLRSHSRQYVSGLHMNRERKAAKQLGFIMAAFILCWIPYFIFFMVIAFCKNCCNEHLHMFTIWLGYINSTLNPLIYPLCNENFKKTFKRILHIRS

Compound: CCC(F)(F)C(=O)C[S+]([O-])c1ccc(C(=O)N2CCN(c3cccc(Cl)c3)[C@@H](C)[C@@H]2C)cc1Cl (mixture of isomers) [compound 3, LEI-515]
- inhibition at 10 µM [1]: -5.3%
- inhibition at 10 µM [2]: -27.2%
- inhibition at 10 µM [3]: 5.4%
- inhibition at 10 µM [4]: 4.9%
- inhibition at 10 µM [5]: 9.5%
- inhibition at 10 µM [6]: -16.6%
- MS chemical proteomics on mouse tissues; gel-based competitive ABPP on recombina [7]: hormone-sensitive lipase (HSL) was identified as main off-target in lung, liver, and brain
- X-ray co-crystal structure (crystal soaking), 1.55 Å [8]: LEI-515 was covalently attached to the catalytic Ser122 residue through its electrophilic carbonyl group as a deprotonated hemiketal
- inhibition at 10 µM [9]: 24.2%
- inhibition at 10 µM [10]: -8%
- inhibition at 10 µM [11]: 27.6%
- inhibition at 10 µM [12]: 20.4%
- inhibition at 10 µM [13]: -11.9%
- inhibition at 10 µM [14]: -29.5%
- inhibition at 10 µM [15]: 9.9%
- inhibition at 10 µM [16]: 26.8%
- inhibition at 10 µM [17]: 10.6%
- inhibition at 10 µM [18]: 8.1%
- inhibition at 10 µM [19]: 11.7%
- inhibition at 10 µM [20]: -19.9%
